Data set [1] has as its system seizures. The data set can be described thus: Anticonvulsant evaluation (ASP phase I / overall). The format is in vivo, mice. The following applies: for minimal effective dose: Mus musculus, ip, Phase I, read-out: ASP Classification. The method, then: The first phase of the ADD Program involved performing tests on male Carworth Farms #1 mice. […] Three tests were performed:
(§1) Maximal electroshock seizures are elicited with a 60-cycle alternating current of 50 mA intensity (5-7 times that necessary to elicit minimal electroshock seizures) delivered via corneal electrodes for 0.2 seconds. A drop of 0.9% saline is instilled in the eye prior to application of the electrodes in order to […].
The animal is observed for 30 minutes.

The test system of data set [2] is Maximal electroshock seizures. The data set can be described thus: MES maximal electroshock seizure test, mice ip. The settings on record: for responders at 300 mg/kg / responders at 100 mg/kg / responders at 10 mg/kg: Mus musculus, ip; for responders at 300 mg/kg: read-out: MES, animals protected/tested; for responders at 100 mg/kg / responders at 10 mg/kg: read-out: MES, animals protected/tested (converted); for responders at 10 mg/kg: mice ip; for anti-MES protecting ability: Phase I. In kind it is in vivo. The method, then: Three tests were performed:
1. MES--Electroshock Seizure Test
as §1

In data set [3] the test system is Maximal electroshock seizures. As to the kind of experiment: Phase VI oral MES test, rats. The format is in vivo. The settings on record: oral; for responders at 50 mg/kg: Rattus norvegicus, read-out: MES, animals protected/tested (converted).
Description: as §1
(§2) This oral screen is designated as phase VI.

Data set [4] has as its system Subcutaneous Pentylenetetrazol seizure. As to the kind of experiment: sc Met subcutaneous pentylenetetrazol (Metrazol) seizure test, mice. In kind it is in vivo. The following applies: Mus musculus, sc, read-out: scMet, animals protected/tested (converted).
Description: 2. sc Met--Subcutaneous Pentylenetetrazol (Metrazol^R) Seizure Test
The animal is observed for 30 minutes. Failure to observe even a threshold seizure (a single episode of clonic spasms of at least 5 seconds duration) is defined as protection and the results are expressed as the number of animals protected/the number of animals tested.
Data set [5] is described as follows: in vivo. The settings on record: rat, po; for Tox, animals toxic/tested: 50 mg/kg.
Description: as §2

Experimental findings from patent publication US5616615A, “Enaminone esters” (priority 1995, dated 1997) are described below.

Read-outs that look alike come from different tables or passages of the source.

With `COC(=O)C1C(=O)C=C(NCc2ccc(F)cc2)CC1C` (centres unmarked) [Compound 21], the minimal effective dose in data set [1] was greater than 100 mg/kg. In data set [1] (substituted benzylamines), the “activity compared with 12” value is “only a slight modification in activity”. Besides, the responders at 300 mg/kg in data set [2] (0.5 h, 30 min) is 0%; in data set [2] (4 h, 4 h), 100%; in data set [4] (0.5 h, 30 min) it was 0%; in data set [4] (4 h, 4 h), 0%. Besides, the “activity in Phase II evaluation” value in data set [2] (substituted benzylamines) is listed as “significant activity”. In addition, the median effective dose (ED50) in data set [3] (Phase VI, rat) was 49.3 mg/kg. The responders at 50 mg/kg was 50% in data set [3] (0.5 h, 0.50 h); 50% in data set [3] (0.25 h); 25% in data set [3] (1.00 h); 50% in data set [3] (2.00 h); 75% in data set [3] (4.00 h). Besides, the TD50 in data set [5] was greater than 230 mg/kg. In data set [5], the selectivity ratio was 4.7. Besides, in data set [5], the “Tox, animals toxic/tested” value is reported as 0/4.
On to `COC(=O)C1C(=O)C=C(Nc2ccc(Cl)cc2)CC1(C)C` (centres unmarked) [Compound 119], for which the minimal effective dose in data set [1] was less than 100 mg/kg. Moreover, the responders at 100 mg/kg in data set [2] (0.5 h, 30 min) was 100%; in data set [2] (4 h, 4 h) it was 100%; in data set [4] (0.5 h, 30 min), 0%; in data set [4] (4 h, 4 h) it was 0%. In addition, the responders at 300 mg/kg in data set [2] (0.5 h, 30 min) is 100%; in data set [2] (4 h, 4 h), 100%; in data set [4] (0.5 h, 30 min) it was 100%; in data set [4] (4 h, 4 h), 100%. Also, the responders at 50 mg/kg in data set [3] (0.5 h, 0.50 h) is 75%; in data set [3] (0.25 h) it was 100%; in data set [3] (1.00 h) it was 100%; in data set [3] (2.00 h) it was 100%; in data set [3] (4.00 h), 100%. The “Tox, animals toxic/tested” value in data set [5] was 0/4.
As for `CCOC(=O)C1C(=O)C=C(Nc2ccc(C(C)(C)C)cc2)CC1C` (centres unmarked) [Compound 130], in data set [1], the minimal effective dose is less than 100 mg/kg. Besides, the responders at 10 mg/kg in data set [2] (0.25 h, 0.25 h) was 100%; in data set [2] (0.5 h, 0.50 h) it was 75%; in data set [2] (1 h, 1.00 h), 50%; in data set [2] (2 h, 2.00 h) it was 0%; in data set [2] (4 h, 4.00 h), 0%. In addition, the responders at 100 mg/kg in data set [2] (0.5 h, 30 min) was 33.3%; in data set [2] (4 h, 4 h) it was 0%; in data set [4] (0.5 h, 30 min) it was 0%; in data set [4] (4 h, 4 h) it was 0%. In addition, the responders at 300 mg/kg is 100% in data set [2] (0.5 h, 30 min); 0% in data set [2] (4 h, 4 h); 0% in data set [4] (0.5 h, 30 min); 0% in data set [4] (4 h, 4 h). In data set [2], the “anti-MES protecting ability” value was “showed anti-MES protecting ability”. The responders at 50 mg/kg is 25% in data set [3] (0.5 h, 0.50 h); 25% in data set [3] (0.25 h); 50% in data set [3] (1.00 h); 75% in data set [3] (2.00 h); 25% in data set [3] (4.00 h). The “Tox, animals toxic/tested” value in data set [5] is on record as 0/4.
Consider `COC(=O)C1C(=O)C=C(Nc2ccc(Cl)cn2)CC1C` (centres unmarked) [Compound 116], for which the minimal effective dose in data set [1] was less than 100 mg/kg. In addition, the responders at 10 mg/kg in data set [2] (0.25 h, 0.25 h) was 75%; in data set [2] (0.5 h, 0.50 h) it was 100%; in data set [2] (1 h, 1.00 h) it was 50%; in data set [2] (2 h, 2.00 h), 0%; in data set [2] (4 h, 4.00 h), 0%. Also, the responders at 100 mg/kg was 66.7% in data set [2] (0.5 h, 30 min); 0% in data set [2] (4 h, 4 h); 0% in data set [4] (0.5 h, 30 min); 0% in data set [4] (4 h, 4 h). Besides, the responders at 300 mg/kg was 100% in data set [2] (0.5 h, 30 min); 0% in data set [2] (4 h, 4 h); 75% in data set [4] (0.5 h, 30 min, second trial); 100% in data set [4] (0.5 h, 30 min); 0% in data set [4] (4 h, 4 h). Further, in data set [2], the “anti-MES protecting ability” value is “showed anti-MES protecting ability”. Moreover, the responders at 50 mg/kg was 100% in data set [3] (0.5 h, 0.50 h); 100% in data set [3] (0.25 h); 100% in data set [3] (1.00 h); 100% in data set [3] (2.00 h); 100% in data set [3] (4.00 h). In addition, the “Tox, animals toxic/tested” value in data set [5] was 0/4.
Turning to `CC1(C)CC(=O)C=C(Nc2ccc([N+](=O)[O-])cc2)C1` [Compound 138], in data set [1], the minimal effective dose is less than 100 mg/kg. In addition, the responders at 100 mg/kg is 33.3% in data set [2] (0.5 h, 30 min); 0% in data set [2] (4 h, 4 h); 0% in data set [4] (0.5 h, 30 min); 0% in data set [4] (4 h, 4 h). The responders at 300 mg/kg in data set [2] (0.5 h, 30 min) was 100%; in data set [2] (4 h, 4 h), 0%; in data set [4] (0.5 h, 30 min) it was 0%; in data set [4] (4 h, 4 h), 0%. Moreover, the responders at 50 mg/kg in data set [3] (0.5 h, 0.50 h) was 0%; in data set [3] (0.25 h), 0%; in data set [3] (1.00 h) it was 0%; in data set [3] (2.00 h), 50%; in data set [3] (4.00 h) it was 0%. Also, in data set [5], the “Tox, animals toxic/tested” value was 0/4.
Consider `COC(=O)C1C(=O)C=C(Nc2ccc(F)cc2)CC1C` (centres unmarked) [Compound 112], for which, in data set [1], the minimal effective dose was less than 100 mg/kg. Moreover, the responders at 100 mg/kg in data set [2] (0.5 h, 30 min) was 66.7%; in data set [2] (4 h, 4 h) it was 0%; in data set [4] (0.5 h, 30 min), 0%; in data set [4] (4 h, 4 h) it was 0%. Moreover, the responders at 300 mg/kg in data set [2] (0.5 h, 30 min) is 100%; in data set [2] (4 h, 4 h), 100%; in data set [4] (0.5 h, 30 min), 0%; in data set [4] (4 h, 4 h), 0%. Besides, the responders at 50 mg/kg is 100% in data set [3] (0.5 h, 0.50 h); 100% in data set [3] (0.25 h); 100% in data set [3] (1.00 h); 100% in data set [3] (2.00 h); 100% in data set [3] (4.00 h). For the same compound, in data set [5], the “Tox, animals toxic/tested” value was 0/4.
With `CCOC(=O)C1C(=O)C=C(Nc2ccc(C)cc2)CC1C` (centres unmarked) [Compound 125], the minimal effective dose in data set [1] was less than 100 mg/kg. Besides, the responders at 10 mg/kg in data set [2] (0.25 h, 0.25 h) is 25%; in data set [2] (0.5 h, 0.50 h), 0%; in data set [2] (1 h, 1.00 h), 25%; in data set [2] (2 h, 2.00 h), 0%; in data set [2] (4 h, 4.00 h), 0%. Also, the responders at 100 mg/kg in data set [2] (0.5 h, 30 min) was 33.3%; in data set [2] (4 h, 4 h) it was 0%; in data set [4] (0.5 h, 30 min), 0%; in data set [4] (4 h, 4 h), 0%. In addition, the responders at 300 mg/kg was 100% in data set [2] (0.5 h, 30 min); 0% in data set [2] (4 h, 4 h); 0% in data set [4] (0.5 h, 30 min); 0% in data set [4] (4 h, 4 h). Also, in data set [2], the “anti-MES protecting ability” value was “showed anti-MES protecting ability”. Also, the responders at 50 mg/kg in data set [3] (0.5 h, 0.50 h) was 100%; in data set [3] (0.25 h), 100%; in data set [3] (1.00 h), 100%; in data set [3] (2.00 h) it was 100%; in data set [3] (4.00 h), 100%. Moreover, the “Tox, animals toxic/tested” value in data set [5] is recorded as 0/4.
Take `COC(=O)C1C(=O)C=C(NCCc2ccccc2)CC1C` (centres unmarked) [Compound 109]: the minimal effective dose in data set [1] is less than 100 mg/kg. Moreover, the responders at 100 mg/kg was 66.7% in data set [2] (0.5 h, 30 min); 0% in data set [2] (4 h, 4 h); 0% in data set [4] (0.5 h, 30 min); 0% in data set [4] (4 h, 4 h). Further, the responders at 300 mg/kg was 100% in data set [2] (0.5 h, 30 min); 0% in data set [2] (4 h, 4 h); 0% in data set [4] (0.5 h, 30 min); 0% in data set [4] (4 h, 4 h). The responders at 50 mg/kg in data set [3] (0.5 h, 0.50 h) is 50%; in data set [3] (0.25 h) it was 100%; in data set [3] (1.00 h) it was 50%; in data set [3] (2.00 h), 25%; in data set [3] (4.00 h) it was 25%. Besides, the “Tox, animals toxic/tested” value in data set [5] is given as 0/4.
Consider `CC1(C)CC(=O)C=C(Nc2ccc(C(F)(F)F)cc2)C1` [Compound 144], for which the minimal effective dose in data set [1] is less than 100 mg/kg. For the same compound, the responders at 100 mg/kg is 0% in data set [2] (0.5 h, 30 min); 66.7% in data set [2] (4 h, 4 h); 0% in data set [4] (0.5 h, 30 min); 0% in data set [4] (4 h, 4 h). Further, the responders at 300 mg/kg in data set [2] (0.5 h, 30 min) is 0%; in data set [2] (4 h, 4 h), 0%; in data set [4] (0.5 h, 30 min), 100%; in data set [4] (4 h, 4 h) it was 0%. The responders at 50 mg/kg in data set [3] (0.5 h, 0.50 h) was 0%; in data set [3] (0.25 h) it was 0%; in data set [3] (1.00 h), 75%; in data set [3] (2.00 h) it was 25%; in data set [3] (4.00 h), 100%. Further, the “Tox, animals toxic/tested” value in data set [5] is reported as 0/4.

By ED50 is commonly meant the dose at which the effect has come halfway, by size or by number of responders. Read a low ED50 as an effect at a small dose.
